From patent EP4782431A1 (Suzhou Merna Therapeutics Co. Ltd, priority 2023, dated 2025)
Blank lines part the entries; values can stand above or below the compound they belong to.

Legend:
[1] = test system: rat models with a hand-foot skin reaction; assay: rat models with a hand-foot skin reaction; assay type: in vivo, SD rats
Protocol: After adaptive feeding for one week, SD rats (with a body weight of approximately 200 g) were randomly divided into groups with balanced body weight, with 12 rats in each group. Modeling drugs (including sorafenib, erlotinib, afatinib, and osimertinib) were respectively dissolved in a solution containing 5% of DMSO, 45% of PEG400, and 50% of H2O, and the modeling drugs were diluted to required concentrations and then administered once daily by gavage at doses shown in Table 3. After administration by gavage for 1 hour, 0.05 g of ointments containing different mass proportions of test compounds were evenly applied to left paws of the rats, a blank matrix ointment was applied to right paws of the rats to serve as a self-control, and no ointment was applied to the rats in a blank control group. After drug application, four limbs were continuously immobilized for 2 hours, then wiped with clean water to remove the residual drugs, removed from immobilization, and restored to free movement. The modeling drugs, the blank matrix ointment, and the ointments containing the test compounds were all administered once daily. After continuous administration for 30 days, the rats were euthanized, and paw plantar skin tissues were collected, fixed in 10% neutral formalin, […]. The ointments for the test compounds were prepared by mixing the compounds, white beeswax, white petrolatum, and light liquid paraffin in specific ratios (weight ratios of 3 ointments were respectively 1:18:58:23, 3:18:57:22, and 10:20:40:30). The blank matrix ointment was prepared by mixing white beeswax, white petrolatum, and light liquid paraffin in a specific ratio (weight ratio of 18:60:22).
Tissue staining: After dewaxing and rehydration, the paw plantar skin tissue sections of the above rats were stained in a hematoxylin solution for several minutes, cleaned, and placed in 1% acid alcohol for soaking until the sections faded to light blue-red. After cleaning with running water for 5 minutes, the sections were stained with eosin for 2-3 minutes, cleaned to remove excess dyes, dehydrated, then permeabilized by adding xylene for several minutes, and sealed and fixed with a neutral resin. The stratum corneum was observed under an optical microscope, and the thickness of the epidermal stratum corneum was measured using Dmetrix software.
Immunohistochemical staining: After dewaxing and hydration, the paw plantar skin tissue sections of the above rats were incubated with 3% H2O2 at room temperature for 30 minutes and blocked with 10% goat serum for 30 minutes after antigen retrieval. A KRT1 antibody (Abcam, ab93652) and a Loricrin antibody (Abcam, ab183646) were added dropwise, the sections were incubated overnight at 4°C, and an HRP secondary antibody (ZSGB-BIO, PV-6001) and a DAB kit (ZSG-BIO, ZLI9017) were added for color development. The sections were re-stained with hematoxylin, cleaned, and sealed and fixed with a neutral resin, and the expression amounts of KRT1 and Loricrin were observed under an optical microscope.
An incidence rate calculation method involves a proportion of animals in each group meeting the above criteria for determining successful modeling, that is, incidence rate = (number of successfully modeled rats/total number of rats in the group)*100%. […]

[2] = stability of crystal forms (XRPD, HPLC, color); assay type: physicochemical; conditions: for Crystal form: XRPD
Protocol: A 2θ scanning angle of the sample was 3°-40°, a scanning step size was 0.02°, and a scanning time per step was 0.12 s/step. An optical tube voltage and a current were 40 kV and 40 mA, respectively. During sample preparation, an appropriate amount of the sample was placed on a sample tray and flattened with a tool such as a glass slide to ensure a smooth and even surface.
An Agilent 1260 infinityII binary pump was used for solubility and stability testing.
The stability of samples under these conditions was detected by XRPD and HPLC, and whether the samples had color changes was observed.
(§1) A certain amount of the crystal form C of the compound of formula (I) was weighed and placed in an open container at 25°C/92.5%RH for 1 week. A certain amount of the crystal form C of the compound of formula (I) was weighed and placed in a closed container at 60°C for 1 week. The stability of samples under these conditions was detected by XRPD and HPLC, and whether the samples had color changes was observed. Table 16 Stability test results of the crystal form C of the compound of formula (I)
as §1, with “form D” for “form C”, “Table 17” for “Table 16”
as §1, with “form E” for “form C”, “Table 18” for “Table 16”

[3] = hygroscopicity by dynamic vapor sorption (DVS); assay type: physicochemical; conditions: for 1st adsorption Percentage of weight change / 1st desorption Percentage of weight change / 2nd adsorption Percentage of weight change / 2nd desorption Percentage of weight change: 40-0-95-0-40%RH, 240 min per step
Protocol: ProUmid SPSx-1µ Advance was used for analysis of a sample. The sample to be tested was approximately in an amount of 5-50 mg. A temperature in a test chamber was controlled at 25±1°C, a relative humidity cycle was […], a step size was 10%, an equilibrium time was 240 minutes per step, and mass data was recorded every 20 seconds.
A DVS cycle was 40-0-95-0-40%RH. XRPD detection was performed on samples after the DVS testing to determine whether crystal form transformation occurred.

[4] = modeling drug alone by gavage once daily 30 days (Sorafenib 100, Erlotinib 70, Afatinib 50, Osimertinib 60 mg/kg), no test compound

- successful modeling rates for the hand-foot skin reaction ([1]; SD rats, once daily by gavage: sorafenib 100, erlotinib 70, afatinib 50, osimertinib 60 mg/kg): 66.7%
- KRT1 and Loricrin in tissues ([1]; immunohistochemical staining, successfully modeled rats, modeling drug alone): significantly increased
Structure (SMILES): CN(C)C/C=C/C(=O)Nc1cc2c(Nc3ccc(F)c(Cl)c3)ncnc2cc1O[C@H]1CCOC1 [Afatinib, afatinib, reference compound]
- Incidence rate Left paw [1, 4]: 8/12 (66.7%)
- Incidence rate Right paw [1, 4]: 8/12 (66.7%)
- stratum corneum thickness of the paw plantar skin ([1]; successfully modeled rats, modeling drug alone, vs normal rats): significantly higher than that of normal rats

Structure (SMILES): NC(=O)[C@H]1CCCc2c1[nH]c1ccc(Cl)cc21 [Crystal form A, (S)-6-chloro-2,3,4,9-tetrahydro-1H-carbazole-carboxamide]
- Color ([2]; 25°C/92.5%RH, open, 1 week): No change
- Degradation (%) ([2]; 25°C/92.5%RH, open, 1 week): None
- Purity (%) ([2]; 25°C/92.5%RH, open, 1 week): 99.8%
- Color ([2]; 60°C, closed, 1 week): No change
- Degradation (%) ([2]; 60°C, closed, 1 week): None
- Purity (%) ([2]; 60°C, closed, 1 week): 99.8%
- Purity (%) ([2]; Initial): 99.8%
- Hygroscopicity Conclusion ([3]; DVS at 25°C, Table 15): Slight hygroscopicity
- 1st adsorption Percentage of weight change ([3]; Relative humidity 0% at 25°C): 0.3%
- 1st desorption Percentage of weight change ([3]; Relative humidity 0% at 25°C): 0.3%
- 2nd adsorption Percentage of weight change ([3]; Relative humidity 0% at 25°C): 0.2%
- 2nd desorption Percentage of weight change ([3]; Relative humidity 0% at 25°C): 0.2%
- 1st adsorption Percentage of weight change ([3]; Relative humidity 10% at 25°C): 0.1%
- 1st desorption Percentage of weight change ([3]; Relative humidity 10% at 25°C): 0.3%
- 2nd adsorption Percentage of weight change ([3]; Relative humidity 10% at 25°C): 0.3%
- 2nd desorption Percentage of weight change ([3]; Relative humidity 10% at 25°C): 0.3%
- 1st adsorption Percentage of weight change ([3]; Relative humidity 20% at 25°C): 0.3%
- 1st desorption Percentage of weight change ([3]; Relative humidity 20% at 25°C): 0.1%
- 2nd adsorption Percentage of weight change ([3]; Relative humidity 20% at 25°C): 0.3%
- 2nd desorption Percentage of weight change ([3]; Relative humidity 20% at 25°C): 0.2%
- 1st adsorption Percentage of weight change ([3]; Relative humidity 30% at 25°C): 0.3%
- 1st desorption Percentage of weight change ([3]; Relative humidity 30% at 25°C): 0.1%
- 2nd adsorption Percentage of weight change ([3]; Relative humidity 30% at 25°C): 0.1%
- 2nd desorption Percentage of weight change ([3]; Relative humidity 30% at 25°C): 0.3%
- 1st adsorption Percentage of weight change ([3]; Relative humidity 40% at 25°C): 0.1%
- 1st desorption Percentage of weight change ([3]; Relative humidity 40% at 25°C): 0.3%
- 2nd adsorption Percentage of weight change ([3]; Relative humidity 40% at 25°C): 0.3%
- 2nd desorption Percentage of weight change ([3]; Relative humidity 40% at 25°C): 0.4%
- 1st adsorption Percentage of weight change ([3]; Relative humidity 50% at 25°C): 0.0%
- 2nd desorption Percentage of weight change ([3]; Relative humidity 50% at 25°C): 0.1%
- 1st adsorption Percentage of weight change ([3]; Relative humidity 60% at 25°C): 0.4%
- 2nd desorption Percentage of weight change ([3]; Relative humidity 60% at 25°C): 0.4%
- 1st adsorption Percentage of weight change ([3]; Relative humidity 70% at 25°C): 0.4%
- 2nd desorption Percentage of weight change ([3]; Relative humidity 70% at 25°C): 0.4%
- 1st adsorption Percentage of weight change ([3]; Relative humidity 80% at 25°C): 0.5%
- 2nd desorption Percentage of weight change ([3]; Relative humidity 80% at 25°C): 0.2%
- 1st adsorption Percentage of weight change ([3]; Relative humidity 90% at 25°C): 0.5%
- 2nd desorption Percentage of weight change ([3]; Relative humidity 90% at 25°C): 0.6%
- 1st adsorption Percentage of weight change ([3]; Relative humidity 95% at 25°C): 0.7%
- 2nd desorption Percentage of weight change ([3]; Relative humidity 95% at 25°C): 0.7%
- XRPD after DVS testing ([3]; after DVS cycle 40-0-95-0-40%RH at 25°C): Crystal form A
- water absorption ([3]; from 40% to 95%RH, 25°C): 0.6%

Structure (SMILES): NC(=O)[C@H]1CCCc2c1[nH]c1ccc(Cl)cc21 [Crystal form C, (S)-6-chloro-2,3,4,9-tetrahydro-1H-carbazole-carboxamide]
- Color ([2]; 25°C/92.5%RH, open, 1 week): No change
- Degradation (%) ([2]; 25°C/92.5%RH, open, 1 week): 0.6%
- Purity (%) ([2]; 25°C/92.5%RH, open, 1 week): 99.1%
- Color ([2]; 60°C, closed, 1 week): Changed
- Degradation (%) ([2]; 60°C, closed, 1 week): 0.1%
- Purity (%) ([2]; 60°C, closed, 1 week): 99.6%
- Purity (%) ([2]; Initial): 99.7%

Structure (SMILES): NC(=O)[C@H]1CCCc2c1[nH]c1ccc(Cl)cc21 [Crystal form D, (S)-6-chloro-2,3,4,9-tetrahydro-1H-carbazole-carboxamide]
- Color ([2]; 25°C/92.5%RH, open, 1 week): No change
- Degradation (%) ([2]; 25°C/92.5%RH, open, 1 week): 0.6%
- Purity (%) ([2]; 25°C/92.5%RH, open, 1 week): 99.2%
- Degradation (%) ([2]; 25°C/92.5%RH, open, 1 week, listed as crystal form D): 0.6%
- Color ([2]; 60°C, closed, 1 week): Changed
- Degradation (%) ([2]; 60°C, closed, 1 week): 1.1%
- Purity (%) ([2]; 60°C, closed, 1 week): 98.7%
- Crystal form ([2]; 60°C, closed, 1 week): D+F
- Degradation (%) ([2]; 60°C, closed, 1 week, listed as crystal form D): 1.1%
- Purity (%) ([2]; Initial): 99.8%

Structure (SMILES): NC(=O)[C@H]1CCCc2c1[nH]c1ccc(Cl)cc21 [Crystal form E, (S)-6-chloro-2,3,4,9-tetrahydro-1H-carbazole-carboxamide]
- Color ([2]; 25°C/92.5%RH, open, 1 week): No change
- Degradation (%) ([2]; 25°C/92.5%RH, open, 1 week): 0.2%
- Purity (%) ([2]; 25°C/92.5%RH, open, 1 week): 99.2%
- Degradation (%) ([2]; 25°C/92.5%RH, open, 1 week, listed as crystal form E): 0.2%
- Color ([2]; 60°C, closed, 1 week): Changed
- Degradation (%) ([2]; 60°C, closed, 1 week): 3.0%
- Purity (%) ([2]; 60°C, closed, 1 week): 96.4%
- Crystal form ([2]; 60°C, closed, 1 week): E+F
- Degradation (%) ([2]; 60°C, closed, 1 week, listed as crystal form E): 3.0%
- Purity (%) ([2]; Initial): 99.4%

- KRT1 and Loricrin in tissues ([1]; rat, in vivo): significantly increased
Structure (SMILES): C#Cc1cccc(Nc2ncnc3cc(OCCOC)c(OCCOC)cc23)c1 [Erlotinib, erlotinib, reference compound]
- stratum corneum thickness of the paw plantar skin ([1]; rat, in vivo): significantly higher than that of normal rats
